Measurements: publication PMC7214591, “Biotransformation of 5-hydroxymethylfurfural into 2,5-dihydroxymethylfuran by Ganoderma sessile and toxicological assessment of both compounds” (AMB Express, 2020)

Tests used:
[1] = Cytotoxicity test, CCK-8, 24 h; format: cell-based; settings: human, HCT-8 cells
Protocol: (§1) Cell lines HCT-8 (3111C0001CCC000104) and A549 (3131C0001000700150) were obtained from National Infrastructure of Cell Line Resource (Beijing, China). SGC-7901 cell line was purchased from Suer Shengwu (Shanghai, China). All cells maintained in a humidified atmosphere at 37 °C and 5% CO2 in RPMI 1640 supplemented with 10% FBS and 1% Penicillin–Streptomycin solution. Cells were seeded in 96-well plates at a density of 8 * 10^3 cells per well and then incubated with various concentrations of 5-HMF and DHMF (Additional file 2: Table S2) for 24 h, respectively. Subsequently, culture supernatant was removed. HCT-8 cells were incubated in 100 μL fresh basal medium and 10 μL CCK-8 solution at 37 ℃ for 2 h. The optical density (OD) value of each well was measured at 450 nm using spectrophotometer (Multiskan Go 1510, Thermo, US); A549 and SGC-7901 cells were incubated in 100 μL MTT solution (1 mg/mL) at 37 ℃ for 4 h. Subsequently, the liquid was removed and dissolved the formazan with 150 μL DMSO, and the OD value was measured at 490 nm. Cell viability was given in a percentage of the control group. All data repeated for three times.

[2] = Cytotoxicity test, MTT, 24 h; format: cell-based; settings: human
Protocol: as §1

[3] = system: Female Sprague–Dawley rats; assay: Acute oral toxicity assessment (OECD 423)
Protocol: The temperature in the experimental animal room was 22 ± 1 °C and the relative humidity was 60% ± 5%, additionally, lighting conditions was 12-h light/dark cycle.
Twenty-four rats were randomly divided into five groups. Six rats were in the control group as well as the high-dose groups, and three rats were in the low-dose groups. Before the experiment, all rats needed to be […] overnight. Briefly, the control group received distilled water while experimental groups were orally treated with test compounds at a single dose of 300 mg/kg 5-HMF, 300 mg/kg DHMF, 2000 mg/kg 5-HMF, and 2000 mg/kg DHMF, respectively. The animals were monitored periodically during the first 24 h, especially the opening 30 min and 4 h, after drug oral treatment for any signs of toxicity. The rats were further observed for 14 days. Moreover, the body weight was measured at the first and last day. At the end of experiment, all rats were anaesthetized and their brains, hearts, lungs, livers, kidneys, and spleens were collected, weighed and observed macroscopically.

[4] = system: mice; design: method as in Bauer Marinovic et al. [2012]; settings: dose up to 536 mg/kg, drinking water for 12 weeks, ref Bauer Marinovic et al. [2012]; cited from earlier work
[5] = system: human skin fibroblast cells; design: method as in Frade et al. [2014]; settings: ref Frade et al. [2014]; cited from earlier work
[6] = rats, 300 mg/kg single oral dose, after 14 days, n = 3
[7] = rats, 2000 mg/kg single oral dose, after 14 days, n = 6

O=Cc1ccc(CO)o1 [5-HMF, 5-hydroxymethylfurfural]
IC50 at 24 h [1]: 9.94 mM | IC50 at 24 h ([2]; A549 cells): 7.14 mM | IC50 at 24 h ([2]; SGC-7901 cells): 8.42 mM | Abnormal behaviours ([3]; female, Sprague-Dawley, rat, in vivo, po, 300 mg/kg): During the first 30 min, all rats became quitter and slightly weaker than the control, and returned to normal within 1 h | Abnormal behaviours ([3]; female, Sprague-Dawley, rat, in vivo, po, 2000 mg/kg): Rat numbered 1 emerged convulsions, lethargy, convulsions, and limb weakness during the first 30 min, showed somnolence and decrease of animal heat in the next 30 min; others only behaved a quiet symptom, all rats returned to normal within 1 h | LD50 cut-off ([3]; rat, in vivo, po, 300 mg/kg): greater than 2000 mg/kg B.W. | Organs index, Brain ([3]; rat, in vivo, po, 300 mg/kg): 0.74 ± 0.02 g/100 g of body weight | Organs index, Heart ([3]; rat, in vivo, po, 300 mg/kg): 0.35 ± 0.03 g/100 g of body weight | Organs index, Kidney ([3]; rat, in vivo, po, 300 mg/kg): 0.75 ± 0.06 g/100 g of body weight | Organs index, Liver ([3]; rat, in vivo, po, 300 mg/kg): 3.06 ± 0.19 g/100 g of body weight | Organs index, Lung ([3]; rat, in vivo, po, 300 mg/kg): 0.52 ± 0.02 g/100 g of body weight | Organs index, Spleen ([3]; rat, in vivo, po, 300 mg/kg): 0.25 ± 0.01 g/100 g of body weight | Organs index, Brain ([3]; rat, in vivo, po, 2000 mg/kg): 0.74 ± 0.05 g/100 g of body weight | Organs index, Heart ([3]; rat, in vivo, po, 2000 mg/kg): 0.33 ± 0.02 g/100 g of body weight | Organs index, Kidney ([3]; rat, in vivo, po, 2000 mg/kg): 0.75 ± 0.07 g/100 g of body weight | Organs index, Liver ([3]; rat, in vivo, po, 2000 mg/kg): 2.83 ± 0.09 g/100 g of body weight | Organs index, Lung ([3]; rat, in vivo, po, 2000 mg/kg): 0.51 ± 0.04 g/100 g of body weight | Organs index, Spleen ([3]; rat, in vivo, po, 2000 mg/kg): 0.25 ± 0.06 g/100 g of body weight | Mortality ([3]; rats, single oral dose 300 or 2000 mg/kg, 14-day observation): none of the rats died | Nephrotoxic effects [4]: mild nephrotoxic effects | Cytotoxicity [5]: none cytotoxic

OCc1ccc(CO)o1 [DHMF, 2,5-dihydroxymethylfuran]
IC50 at 24 h [1]: 26.6 mM | IC50 at 24 h ([2]; A549 cells): 0.697 mM | IC50 at 24 h ([2]; SGC-7901 cells): 0.33 mM | Organs index, Brain [3, 6]: 0.68 ± 0.09 g/100 g of body weight | Organs index, Heart [3, 6]: 0.32 ± 0.02 g/100 g of body weight | Organs index, Kidney [3, 6]: 0.75 ± 0.07 g/100 g of body weight | Organs index, Liver [3, 6]: 3.04 ± 0.26 g/100 g of body weight | Organs index, Lung [3, 6]: 0.47 ± 0.01 g/100 g of body weight | Organs index, Spleen [3, 6]: 0.22 ± 0.04 g/100 g of body weight | Organs index, Brain [3, 7]: 0.79 ± 0.07 g/100 g of body weight | Organs index, Heart [3, 7]: 0.32 ± 0.04 g/100 g of body weight | Organs index, Kidney [3, 7]: 0.75 ± 0.06 g/100 g of body weight | Organs index, Liver [3, 7]: 3.05 ± 0.17 g/100 g of body weight | Organs index, Lung [3, 7]: 0.49 ± 0.03 g/100 g of body weight | Organs index, Spleen [3, 7]: 0.22 ± 0.02 g/100 g of body weight | Abnormal behaviours ([3]; rats, single oral dose 300 mg/kg, first 4 h, n = 3): During the first 30 min, all rats became quitter and slightly weaker than the control, and returned to normal within 1 h | Abnormal behaviours ([3]; rats, single oral dose 2000 mg/kg, first 4 h, n = 6): In the first 30 min, all rats were more active than control, then showed lethargic and dilatoriness, yet returned to normal after 30 min | LD50 cut-off ([3]; rats, single oral dose, OECD 423 annex 2c, starting dose 300 mg/kg): greater than 2000 mg/kg B.W.
